Assay [1] in a line: reduction of Shn3 3'UTR-driven luciferase in osteoblasts – cell-based, Clone20 osteoblasts, firefly luciferase, cherry-picked, dose response (AID 624132).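 Also: firefly luciferase luminescence from reporter carrying the Shn3 3'UTR in osteoblasts.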 The assay is classed as functional.
Assay [2] concerns the target Voltage-dependent T-type calcium channel subunit alpha-1H (Homo sapiens, UniProt O95180). The assay is classed as functional.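 Also: channel activity triggered by adding a high calcium stimulation buffer.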
Assay [3] is described as follows: viability of HCT116 lacking mutant beta-catenin – cell-based, human colon tumor, dose response (AID 1045).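 Also: HCT116 colon tumor cells with beta catenin knocked out; cells exposed to compound for 60 hours.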 The assay is classed as functional.
The test system of the next assay is Jurkat. Nature of the assay: blockers of NF-kB activation in T cells – Jurkat, luciferase reporter, luminescence, B- and T-cell, dose response (AID 489004).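 Also: NF-kB luciferase reporter Jurkat cells stimulated with PMA plus ionomycin.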 The assay is classed as functional, cell-based. Conditions: Homo sapiens. Background: In a reporter assay the amount or activity of a reporter protein is the signal.
Assay [4] relates to BJ. Nature of the assay: BJ-TERT fibroblast viability loss – cell-based, RAS-independent, luminescence, dose response (AID 1933). The assay is classed as functional. The conditions noted are these: Homo sapiens.
A short description of assay [5]: loss of viability in HepG2 cells – cell-based, CellTiter-Glo, cherry-picked, cytotoxicity control for Shn3 inhibitor project, dose response (AID 624134). The assay is classed as functional. (In general: Cellular ATP, detected with luciferase, serves as a proxy for viable cell number.)
Assay [6] has as its target Sphingosine 1-phosphate receptor 2 (Homo sapiens, UniProt O95136). Nature of the assay: Dose Response Cell Based Assay for Antagonists of the S1P2 Receptor. [Related pubchem assays: 856, 736 ]. The assay is classed as functional.
Assay [7] is described as follows: DRD fibroblast viability loss – cell-based, non-viral oncogenic, luminescence, dose response (AID 1934). The assay is classed as functional. The conditions noted are these: Homo sapiens.
Assay [8] relates to BJ. Nature of the assay: BJ-TERT-LT-ST fibroblast viability loss – cell-based, RAS-independent, luminescence, dose response (AID 1935).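 Also: BJ fibroblasts immortalized with TERT plus LT and ST oncogenes.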 The assay is classed as functional. The conditions noted are these: Homo sapiens.
The nature of assay [9]: viability of PTEN-deleted HCT116 cells – cell-based, HCT116 PTEN knockout, dose response (AID 1047).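 Also: HCT116 colon tumor cells with PTEN knocked out; cells exposed to compound for 60 hours before readout; potency for loss of cell viability measured by luminescence.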 The assay is classed as functional.
The target of assay [10] is T1, Calpain-2 catalytic subunit (Sus scrofa, UniProt P43367).
T1 sequence (P43367 whole entry): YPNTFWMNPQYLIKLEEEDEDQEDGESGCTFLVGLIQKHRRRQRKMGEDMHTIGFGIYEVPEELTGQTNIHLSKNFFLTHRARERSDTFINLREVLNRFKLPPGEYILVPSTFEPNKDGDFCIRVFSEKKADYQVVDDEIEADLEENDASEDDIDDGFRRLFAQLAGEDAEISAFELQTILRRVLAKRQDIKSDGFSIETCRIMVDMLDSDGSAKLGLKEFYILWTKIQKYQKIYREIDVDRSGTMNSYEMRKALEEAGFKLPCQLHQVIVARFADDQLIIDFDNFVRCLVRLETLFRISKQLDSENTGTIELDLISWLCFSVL
Nature of the assay: m-calpain protease blockers, concentration series – biochemical, fluorogenic peptide substrate, dose response (AID 1420). The assay is classed as functional.

Assay [11] in a line: HEK-293T viability loss, compound-treated – cell-based, uHTS hits, cytotoxicity control for B/T-cell NF-kB inhibitor project, dose response (AID 489019).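 Also: IC50 reflects cytotoxicity as loss of cell viability.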 The assay is classed as functional.
In assay [12] the test system is BJ. Nature of the assay: cells. The assay is classed as functional, cell-based. The conditions noted are these: Homo sapiens.
Assay [13] is described as follows: non-specific 3'UTR reporter inhibition in Clone20-Shn3RL – cell-based, Renilla luciferase, cherry-picked, counter-screen for Shn3 inhibitor project, dose response (AID 624133). The assay is classed as functional. For orientation: A counterscreen serves to expose hits that act by an unwanted route or on another target.
Assay [14] is described as follows: microbe, parasite or virus in culture. Conditions: Mycobacterium tuberculosis. The assay is classed as functional.
For a further assay, the system named is INS1. Briefly: INS-1E survival protection against cytokine death – cell-based, luminescence, retest, dose response (AID 449756).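 Also: cell death triggered by IL-1 beta plus TNF-alpha plus IFN-gamma mixture; protective hits raise ATP signal compared with cytokine alone wells.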 The assay is classed as functional. Conditions: Rattus norvegicus.
Assay [15] can be described thus: Luminescence Cell-Based Dose Retest to Confirm Inhibitors of Cancer Stem Cells. [Related pubchem assays (depositor defined):AID2717, AID2721]. The assay is classed as functional. Conditions: Homo sapiens.
A short description of assay [16]: viability loss in THP-1 monocytes – THP-1 cells, cytotoxicity control for Vif-APOBEC3G degradation inhibitor project, dose response (AID 1117359). The assay is classed as functional. Conditions: THP-1.
In assay [17] the target is T2, RNA-editing ligase 1, mitochondrial (Trypanosoma brucei brucei, UniProt P86926).
T2 sequence (P86926 whole entry): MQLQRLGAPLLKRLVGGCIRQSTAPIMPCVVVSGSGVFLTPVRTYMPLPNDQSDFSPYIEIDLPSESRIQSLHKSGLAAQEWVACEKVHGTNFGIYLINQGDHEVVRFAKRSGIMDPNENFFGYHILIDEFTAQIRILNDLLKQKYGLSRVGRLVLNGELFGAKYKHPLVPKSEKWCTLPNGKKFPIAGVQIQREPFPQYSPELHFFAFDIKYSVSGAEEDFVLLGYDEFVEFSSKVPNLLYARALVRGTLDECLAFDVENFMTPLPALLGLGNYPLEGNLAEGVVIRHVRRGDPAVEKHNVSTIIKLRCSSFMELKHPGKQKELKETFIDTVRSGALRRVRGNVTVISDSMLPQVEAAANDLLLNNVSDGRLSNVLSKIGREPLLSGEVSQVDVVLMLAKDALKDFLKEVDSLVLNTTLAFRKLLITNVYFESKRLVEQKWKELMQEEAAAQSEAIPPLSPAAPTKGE
Briefly: inhibition of trypanosome RNA editing ligase – biochemical, fluorescence, Trypanosoma brucei, dose response (AID 1117295). The assay is classed as functional.

The next assay deals with T3, fMet-Leu-Phe receptor (Homo sapiens, UniProt P21462).
T3 sequence (P21462 whole entry): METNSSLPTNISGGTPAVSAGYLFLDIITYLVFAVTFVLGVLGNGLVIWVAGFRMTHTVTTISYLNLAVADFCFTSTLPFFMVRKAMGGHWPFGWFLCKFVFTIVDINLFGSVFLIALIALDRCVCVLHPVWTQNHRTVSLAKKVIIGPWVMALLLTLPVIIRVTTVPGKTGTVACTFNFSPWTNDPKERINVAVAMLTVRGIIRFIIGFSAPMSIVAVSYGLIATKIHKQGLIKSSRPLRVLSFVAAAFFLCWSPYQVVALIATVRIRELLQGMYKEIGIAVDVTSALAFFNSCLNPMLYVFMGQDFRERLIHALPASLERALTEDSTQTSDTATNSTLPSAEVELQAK
Briefly: formyl peptide receptor binders – dose response (AID 519). The assay is classed as functional.

The subject of the next assay is HT-1080. Nature of the assay: HT1080 cell viability loss – fluorescence readout (AID 620). Conditions: Homo sapiens. The assay is classed as functional, cell-based.
Assay [18] in a line: cytotoxicity toward HCT116 cells – cell-based, CellTiter-Glo luminescence, IC50, dose response (AID 1117332). Conditions: HCT-116. The assay is classed as functional.
Assay [19] is described as follows: RKO cell viability reduction, dose response, CellTiter-Glo luminescence (AID 1117322). The assay is classed as functional.
Assay [20] in a line: cytotoxicity toward Colo320 cells – cell-based, CellTiter-Glo luminescence, IC50, dose response (AID 1117334). The assay is classed as functional. Conditions: COLO 320.
A short description of assay [21]: cytotoxicity toward HT-29 cells – cell-based, CellTiter-Glo luminescence, IC50, dose response (AID 1117330). The assay is classed as functional.
Assay [22] in a line: Reduced DLD-1 viability, concentration-response, CellTiter-Glo luminescence (AID 1117352). The assay is classed as functional.
Assay [23] in a line: CellTiter-Glo luminescence survival assay, SW480 colon tumor line, concentration-response curve, half-maximal inhibitory concentration (AID 1117338). The assay is classed as functional.
A short description of assay [24]: NIH3T3 cell viability loss – ATP luminescence, mouse fibroblasts, counter-screen, dose response (AID 2010).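 Also: cells exposed to compound for about 90 hours before reading.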 The assay is classed as functional, cell-based.
Assay [25] in a line: Trypanosoma cruzi growth suppression in host cells – NIH3T3 host cells, beta-gal luminescence, confirmation (AID 2044).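 Also: intracellular parasites grown in NIH/3T3 mouse fibroblasts as host cells; luminescent beta-galactosidase reporter signal from transgenic T. cruzi replicating inside host cells; inhibitors lower the luminescence signal.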 The assay is classed as functional, cell-based.

Counter-ions that a name gives are not always drawn. The source made the active and inactive calls.

Broadly, the AC50 is the concentration at which the activity in the assay is half-maximal. By EC50 is commonly meant the concentration that produces a half-maximal response. Usually IC50 stands for the midpoint of a concentration-inhibition curve. Broadly, the Ki is a measure of affinity in units of concentration, obtained from inhibition or displacement.

Sequence of Sphingosine 1-phosphate receptor 2 (O95136 whole entry): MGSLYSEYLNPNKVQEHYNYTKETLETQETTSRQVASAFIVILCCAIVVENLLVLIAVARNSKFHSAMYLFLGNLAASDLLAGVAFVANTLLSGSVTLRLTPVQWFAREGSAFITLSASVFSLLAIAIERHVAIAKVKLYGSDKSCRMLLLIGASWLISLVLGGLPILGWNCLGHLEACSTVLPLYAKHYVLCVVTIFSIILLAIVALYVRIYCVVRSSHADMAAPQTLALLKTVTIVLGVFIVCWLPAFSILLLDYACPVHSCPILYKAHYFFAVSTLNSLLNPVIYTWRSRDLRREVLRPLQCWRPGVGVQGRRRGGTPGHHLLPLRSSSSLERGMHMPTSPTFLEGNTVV
Sequence of Voltage-dependent T-type calcium channel subunit alpha-1H (O95180 whole entry): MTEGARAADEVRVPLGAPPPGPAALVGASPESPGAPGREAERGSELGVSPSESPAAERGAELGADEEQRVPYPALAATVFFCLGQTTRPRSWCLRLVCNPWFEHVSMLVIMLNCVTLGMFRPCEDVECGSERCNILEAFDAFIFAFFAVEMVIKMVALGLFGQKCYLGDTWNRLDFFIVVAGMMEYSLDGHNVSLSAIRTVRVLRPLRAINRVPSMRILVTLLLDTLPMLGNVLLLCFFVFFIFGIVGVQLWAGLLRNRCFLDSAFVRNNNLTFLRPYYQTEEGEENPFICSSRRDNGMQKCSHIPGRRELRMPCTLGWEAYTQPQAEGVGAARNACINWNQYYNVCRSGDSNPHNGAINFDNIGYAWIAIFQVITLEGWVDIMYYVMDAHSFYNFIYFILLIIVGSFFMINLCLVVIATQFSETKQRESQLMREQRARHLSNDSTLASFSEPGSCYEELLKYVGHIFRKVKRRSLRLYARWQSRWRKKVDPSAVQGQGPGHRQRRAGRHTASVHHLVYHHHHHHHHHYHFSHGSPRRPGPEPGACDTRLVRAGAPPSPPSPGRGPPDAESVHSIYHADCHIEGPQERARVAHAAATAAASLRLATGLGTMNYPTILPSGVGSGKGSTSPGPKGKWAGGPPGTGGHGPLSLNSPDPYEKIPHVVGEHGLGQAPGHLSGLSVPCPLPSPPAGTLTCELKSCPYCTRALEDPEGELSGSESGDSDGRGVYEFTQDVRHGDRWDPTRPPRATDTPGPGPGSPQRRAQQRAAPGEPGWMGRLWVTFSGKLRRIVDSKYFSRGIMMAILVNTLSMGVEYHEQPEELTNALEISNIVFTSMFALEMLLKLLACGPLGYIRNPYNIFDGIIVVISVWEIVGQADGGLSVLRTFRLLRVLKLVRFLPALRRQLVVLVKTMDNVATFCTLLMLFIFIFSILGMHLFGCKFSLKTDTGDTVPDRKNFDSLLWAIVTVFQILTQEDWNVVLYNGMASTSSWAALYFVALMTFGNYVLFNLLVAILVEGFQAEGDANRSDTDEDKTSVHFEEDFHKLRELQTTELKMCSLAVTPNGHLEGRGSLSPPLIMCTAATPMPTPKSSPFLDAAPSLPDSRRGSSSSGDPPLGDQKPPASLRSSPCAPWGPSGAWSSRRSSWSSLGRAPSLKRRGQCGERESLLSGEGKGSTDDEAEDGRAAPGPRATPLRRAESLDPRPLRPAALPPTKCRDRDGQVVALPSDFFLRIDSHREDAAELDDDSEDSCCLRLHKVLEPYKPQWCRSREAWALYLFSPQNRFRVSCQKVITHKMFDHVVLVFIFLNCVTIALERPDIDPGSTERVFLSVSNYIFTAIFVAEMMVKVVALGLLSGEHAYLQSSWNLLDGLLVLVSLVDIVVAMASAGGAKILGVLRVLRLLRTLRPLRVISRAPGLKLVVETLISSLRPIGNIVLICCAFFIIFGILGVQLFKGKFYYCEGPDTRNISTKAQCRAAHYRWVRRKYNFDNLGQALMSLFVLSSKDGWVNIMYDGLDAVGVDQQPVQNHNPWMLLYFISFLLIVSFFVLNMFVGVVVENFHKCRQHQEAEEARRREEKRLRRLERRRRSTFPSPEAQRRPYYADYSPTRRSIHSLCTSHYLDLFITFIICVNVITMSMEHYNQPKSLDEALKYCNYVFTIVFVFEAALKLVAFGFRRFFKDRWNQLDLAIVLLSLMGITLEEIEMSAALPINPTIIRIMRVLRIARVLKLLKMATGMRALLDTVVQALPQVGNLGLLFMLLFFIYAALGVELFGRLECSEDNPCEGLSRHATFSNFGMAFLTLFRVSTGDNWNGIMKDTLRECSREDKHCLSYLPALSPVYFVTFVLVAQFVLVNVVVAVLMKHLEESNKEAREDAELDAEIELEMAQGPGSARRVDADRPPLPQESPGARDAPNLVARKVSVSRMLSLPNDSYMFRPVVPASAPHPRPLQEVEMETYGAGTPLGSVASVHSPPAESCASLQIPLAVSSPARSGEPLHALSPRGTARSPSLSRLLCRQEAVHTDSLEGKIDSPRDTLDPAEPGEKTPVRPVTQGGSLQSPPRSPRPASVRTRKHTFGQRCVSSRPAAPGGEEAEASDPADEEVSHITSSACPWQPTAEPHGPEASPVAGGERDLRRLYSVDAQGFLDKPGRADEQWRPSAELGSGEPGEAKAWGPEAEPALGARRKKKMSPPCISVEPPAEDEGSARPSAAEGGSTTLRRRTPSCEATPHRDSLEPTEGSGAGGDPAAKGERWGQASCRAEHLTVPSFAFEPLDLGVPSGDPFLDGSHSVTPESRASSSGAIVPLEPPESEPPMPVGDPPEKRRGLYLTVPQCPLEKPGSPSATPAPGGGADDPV

Take `N#CC(c1cccc(Cl)c1)c1ccc2c(C(F)(F)F)cc(C(F)(F)F)nc2n1` (stereo not drawn): the AC50 in assay [1] is 689 nM (active); in [5], 805 nM (active); in assay [13], 540 nM (active); in the assay with INS1, 881 nM (active). The EC50 was 3.85 µM (active) in assay [2]; 267 nM (active) in assay [3]; 2.77 µM (active) in the assay on BJ [4]; 3.04 µM (active) in [7]; 6.56 µM (active) in the assay on BJ [8]; 235 nM (active) in assay [9]. Besides, the EC50 in the assay with BJ [12] was 3.68 µM (inconclusive). The IC50 was 34.5 µM (inactive) in the assay on Jurkat, 0.922 µM (active) in [6], 6.77 µM (not active) in [10] and > 80 µM (inactive) in [11]. The CC50 in assay [14] was < 160 nM (active).

On to `Cc1ccc(/C=N/c2ccccc2C(N)=O)s1`, for which the AC50 in assay [15] was 2.44 µM (active). In assay [16], the CC50 was 2.54 µM (active).

`CC(C)Nc1nc(NCCOc2ccccc2Cl)c2sc(-c3ccccc3)cc2n1`: the IC50 in [17] was > 96.6 µM (inactive).

As to `COc1cccc(-c2nc(CS(=O)(=O)CC(=O)NCCC(C)C)c(C)o2)c1`, the Ki on fMet-Leu-Phe receptor is > 66.7 µM (inactive).

With `Cc1ccc(F)c(NC(=O)C2CCCCC2C(=O)O)c1` (stereo not drawn), the Ki on fMet-Leu-Phe receptor was > 66.7 µM (inactive).

`O=C(NC1=NC2CCCCC2N1)c1ccccc1` (stereo not drawn): the EC50 in the assay on HT-1080 is > 50 µM (not active).

For `Cc1n[nH]c(C)c1N1C(=O)c2cccc3c(Br)ccc(c23)C1=O`, the concentration for half-maximal inhibition (IC50) in [6] is given as > 75.5 µM (not active).

Take `COC(=O)C1=C(C)N(Cc2ccccc2C(F)(F)F)C(NCc2ccccc2)=NC1c1cccc(F)c1` (stereo not drawn): the IC50 in [17] is > 96.6 µM (inactive).

On to `CC(C)(C)NCC(O)c1cc(O)cc(O)c1` (stereo not drawn) [TERBUTALINE SULFATE], for which the IC50 in [18], in [19], in assay [20], in assay [21], in [22] and in assay [23] was > 20 µM (inactive) throughout.

Take `COc1cc(CN(C)CCc2ccccc2)ccc1OCc1ccccc1`: the 50% effective concentration (EC50) in assay [24] is 19.1 µM (active); in [25] it was < 100 nM (active); in “cells” it was 6 nM (active).

(Values after ChEMBL document CHEMBL1201862, “PubChem BioAssay data set” (2004).)
